# US20250179083A1, “TRICYCLIC TRIAZOLO COMPOUNDS AS DGK INHIBITORS” (Incyte Corporation, priority 2023, published 2025)
# How the values were obtained:
# DGKα = target: T1, DGKα (Homo sapiens, UniProt P23743); assay: In vitro DGKα inhibition assay (ADP-Glo); type: biochemical; settings: His-tagged human recombinant DGKα 0.1 nM, 50 μM ATP, 20 μM DLG, 90 minute incubation
# T1 construct: His; purchased Signal Chem D21-10BH
# Description: (§1) The DGKα and DGKζ biochemical reactions were performed using His-tagged human recombinant enzymes (Signal Chem, DGKα, #D21-10BH; DGKζ, #D30-10H)) and DLG (Dilauroyl-sn-glycerol) lipid substrate (Signal Chem, #D430-59). ADP-Glo assay was performed using ADP-Glo™ kinase Assay kit (Promega, #V9104). The reactions were carried out in assay buffer containing 40 mM Tris, pH 7.5, 0.1% CHAPS, 0.1% Prionex, 40 mM NaCl, 5 mM MgCl2, 1 mM CaCl2, and 1 mM DTT. DGKα reactions contained 0.1 nM DGKα, 50 μM ATP, and 20 μM DLG. And DGKζ reactions contained 0.4 nM DGKζ, 30 μM ATP, and 20 μM DLG.
# (§2) Compounds were added with top concentration of 2 mM with 11 point, 3-fold dilution series. Enzyme solution (contains 2×DGK enzyme concentration in 1× assay buffer) was added to the plate in 2 μL/well volume, followed by 2 μL/well of substrate solution (contains 2× concentration of ATP and DLG substrate in 1× assay buffer). Plates were then centrifuged for 1 min at 1200 RPM and sealed or lidded. For 4 μL reaction volume, test compounds were therefore diluted 100× to final top concentration of 20 μM. After 90 minute incubation, reactions were quenched by addition of 2 μL/well Promega ADP-Glo Reagent, followed by centrifugation and lidding. After 60 min incubation, 2 μL/well Promega Kinase Detection Reagent was added, plates centrifuged, and incubated for 30 min. Plates were then read using Luminescence method on BMG PHERAstar FSX plate reader. Percent inhibition was calculated and IC50s were determined using 4-parameter fit in Genedata Screener. Labcyte Echo acoustic dispenser was used for compound addition, and Formulatrix Tempest liquid handler was used for all reagent dispenses.
# DGKζ = target: T2, DGKζ (Homo sapiens, UniProt Q13574); assay: In vitro DGKζ inhibition assay (ADP-Glo); type: biochemical; settings: His-tagged human recombinant DGKζ 0.4 nM, 30 μM ATP, 20 μM DLG, 90 minute incubation
# T2 construct: His; purchased Signal Chem D30-10H
# Description: as §1, §2
# T2 sequence (Q13574 whole entry): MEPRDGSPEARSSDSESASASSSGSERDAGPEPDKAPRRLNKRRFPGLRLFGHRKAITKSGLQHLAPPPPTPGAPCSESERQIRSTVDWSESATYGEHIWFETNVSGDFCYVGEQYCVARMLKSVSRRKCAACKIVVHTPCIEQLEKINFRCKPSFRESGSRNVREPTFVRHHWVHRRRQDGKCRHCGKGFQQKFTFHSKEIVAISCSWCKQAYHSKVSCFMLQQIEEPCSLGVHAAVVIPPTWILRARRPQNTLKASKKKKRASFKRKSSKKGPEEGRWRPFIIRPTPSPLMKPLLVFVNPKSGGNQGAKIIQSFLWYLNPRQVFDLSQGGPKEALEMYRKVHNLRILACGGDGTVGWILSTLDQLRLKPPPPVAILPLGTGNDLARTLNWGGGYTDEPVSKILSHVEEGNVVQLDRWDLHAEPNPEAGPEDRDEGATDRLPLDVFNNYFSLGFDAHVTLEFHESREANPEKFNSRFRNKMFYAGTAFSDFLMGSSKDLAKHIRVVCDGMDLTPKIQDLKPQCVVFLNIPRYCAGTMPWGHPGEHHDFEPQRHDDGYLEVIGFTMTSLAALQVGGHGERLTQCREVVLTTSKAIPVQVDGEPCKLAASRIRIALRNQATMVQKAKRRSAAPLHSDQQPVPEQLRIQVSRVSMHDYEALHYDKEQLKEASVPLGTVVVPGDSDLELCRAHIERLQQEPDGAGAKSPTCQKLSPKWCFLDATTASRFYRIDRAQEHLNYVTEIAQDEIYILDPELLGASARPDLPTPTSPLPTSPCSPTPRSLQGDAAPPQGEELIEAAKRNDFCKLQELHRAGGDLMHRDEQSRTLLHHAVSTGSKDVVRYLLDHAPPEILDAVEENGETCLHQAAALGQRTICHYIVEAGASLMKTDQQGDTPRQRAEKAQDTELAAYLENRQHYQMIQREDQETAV
# T1 sequence (P23743 whole entry): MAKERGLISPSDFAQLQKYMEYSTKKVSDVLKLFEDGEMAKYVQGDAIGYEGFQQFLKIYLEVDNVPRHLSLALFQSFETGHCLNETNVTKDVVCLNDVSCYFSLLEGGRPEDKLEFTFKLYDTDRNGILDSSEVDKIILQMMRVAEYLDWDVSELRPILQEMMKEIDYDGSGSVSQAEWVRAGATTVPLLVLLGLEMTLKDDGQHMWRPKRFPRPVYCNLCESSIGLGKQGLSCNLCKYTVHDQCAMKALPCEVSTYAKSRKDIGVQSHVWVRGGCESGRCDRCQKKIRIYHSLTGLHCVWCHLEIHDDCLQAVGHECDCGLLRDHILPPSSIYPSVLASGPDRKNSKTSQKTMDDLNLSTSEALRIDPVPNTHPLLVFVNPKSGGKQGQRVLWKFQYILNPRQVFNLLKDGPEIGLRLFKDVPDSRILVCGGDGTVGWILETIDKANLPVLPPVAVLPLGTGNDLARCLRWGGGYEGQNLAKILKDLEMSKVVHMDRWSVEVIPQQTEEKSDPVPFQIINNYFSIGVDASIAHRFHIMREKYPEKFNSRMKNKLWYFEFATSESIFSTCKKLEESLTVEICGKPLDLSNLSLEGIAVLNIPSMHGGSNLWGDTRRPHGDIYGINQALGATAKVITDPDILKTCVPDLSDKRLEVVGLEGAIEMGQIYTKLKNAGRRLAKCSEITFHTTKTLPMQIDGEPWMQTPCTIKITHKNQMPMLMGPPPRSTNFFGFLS
SMILES,IC50 (DGKα) [nM],IC50 (DGKζ) [nM]
"C[C@@H]1CN(c2nc3nncn3c3c2ncn3C[C@@H]2CCCO2)[C@@H](C)CN1C(c1ccc(Cl)cc1)[C@@H]1CC1(F)F (single isomer, unassigned) [Example 6]",< 20,< 20
"CC(C)CC(c1ccc(Cl)c(F)c1)N1C[C@H](C)N(c2nc3nncn3c3c2ncn3C[C@@H]2CCCO2)C[C@H]1C (single isomer, unassigned) [Example 15]",< 20,< 20
"C[C@@H]1CN(c2nc3nncn3c3c2ncn3C[C@@H]2CCCO2)[C@@H](C)CN1C(c1ccc(Cl)c(F)c1)C1CC(F)(F)C1 (stereo partly drawn) [Example 30, 4-((2S,5R)-4-((4-Chloro-3-fluorophenyl)(3,3-difluorocyclobutyl)methyl)-2,5-dimethylpiperazin-1-yl)-1-(((S)-tetrahydrofuran-2-yl)methyl)-1H-[1,2,4]triazolo[3,4-b]purine]",< 20,< 20
"C[C@@H]1CN(c2nc3nncn3c3c2ncn3C[C@@H]2CCCO2)[C@@H](C)CN1C(c1ccc(C(F)(F)F)cc1)C1CC(F)(F)C1 (single isomer, unassigned) [Example 1]",< 20,< 20
"CC(CC(c1ccc(Cl)cc1)N1C[C@H](C)N(c2nc3nncn3c3c2ncn3C[C@@H]2CCCO2)C[C@H]1C)C(F)(F)F (single isomer, unassigned) [Example 12]",< 20,< 20
"Cc1nc2c(N3C[C@@H](C)N(C(c4cc(F)c(Cl)cc4F)C4CC(F)(F)C4)C[C@@H]3C)nc3nncn3c2n1C[C@@H]1CCCO1 (stereo partly drawn) [Example 79, 4-((2S,5R)-4-((4-Chloro-2,5-difluorophenyl)(3,3-difluorocyclobutyl)methyl)-2,5-dimethylpiperazin-1-yl)-2-methyl-1-(((S)-tetrahydrofuran-2-yl)methyl)-1H-[1,2,4]triazolo[3,4-b]purine]",< 20,< 20
"Cc1nc2c(N3C[C@@H](C)N([C@@H](c4ccc(Cl)cc4F)C(C)C)C[C@@H]3C)nc3nncn3c2n1C[C@@H]1CCCO1 [Example 29, 4-((2S,5R)-4-((R)-1-(4-chloro-2-fluorophenyl)-2-methylpropyl)-2,5-dimethylpiperazin-1-yl)-2-methyl-1-(((S)-tetrahydrofuran-2-yl)methyl)-1H-[1,2,4]triazolo[3,4-b]purine]",< 20,< 20
"CC[C@@H](c1ccc(C(F)(F)F)cc1)N1C[C@H](C)N(c2nc3nncn3c3c2ncn3C[C@@H]2CCCO2)C[C@H]1C [Example 59, 4-((2S,5R)-2,5-Dimethyl-4-((S)-1-(4-(trifluoromethyl)phenyl)propyl)piperazin-1-yl)-1-(((S)-tetrahydrofuran-2-yl)methyl)-1H-[1,2,4]triazolo[3,4-b]purine]",< 20,< 20
"CC(C)CC(c1ccc(Cl)cc1)N1C[C@H](C)N(c2nc3nncn3c3c2ncn3C[C@@H]2CCCO2)C[C@H]1C (single isomer, unassigned) [Example 9]",< 20,< 20
"Cc1nc2c(N3C[C@@H](C)N(C(c4ccc(Cl)cc4)C4CC4)C[C@@H]3C)nc3nncn3c2n1C[C@@H]1CCCO1 (stereo partly drawn) [Example 54, 4-((2S,5R)-4-((4-Chlorophenyl)(cyclopropyl)methyl)-2,5-dimethylpiperazin-1-yl)-2-methyl-1-(((S)-tetrahydrofuran-2-yl)methyl)-1H-[1,2,4]triazolo[3,4-b]purine]",< 20,< 20
"CC[C@@H](c1ccc(C(F)(F)F)cc1)N1C[C@H](C)N(c2nc3nncn3c3c2nc(C)n3C[C@@H]2CCCO2)C[C@H]1C [Example 89, 4-((2S,5R)-2,5-Dimethyl-4-((S)-1-(4-(trifluoromethyl)phenyl)propyl)piperazin-1-yl)-2-methyl-1-(((S)-tetrahydrofuran-2-yl)methyl)-1H-[1,2,4]triazolo[3,4-b]purine]",< 20,< 20
